{"source": "patent US20200062719A1", "about": "“Application of Imidazopyridine Derivatives in Regenerative Medicine” (University of Heidelberg, priority 2018, published 2020)", "key": {"[1]": {"target": "T1, KDM5D (Homo sapiens, UniProt Q9BY66)", "T1 construct": "magnetic beads were used to immunoprecipitate the respective enzymes from 10^8 cells; endogenous in cells", "T1 sequence (Q9BY66 whole entry)": "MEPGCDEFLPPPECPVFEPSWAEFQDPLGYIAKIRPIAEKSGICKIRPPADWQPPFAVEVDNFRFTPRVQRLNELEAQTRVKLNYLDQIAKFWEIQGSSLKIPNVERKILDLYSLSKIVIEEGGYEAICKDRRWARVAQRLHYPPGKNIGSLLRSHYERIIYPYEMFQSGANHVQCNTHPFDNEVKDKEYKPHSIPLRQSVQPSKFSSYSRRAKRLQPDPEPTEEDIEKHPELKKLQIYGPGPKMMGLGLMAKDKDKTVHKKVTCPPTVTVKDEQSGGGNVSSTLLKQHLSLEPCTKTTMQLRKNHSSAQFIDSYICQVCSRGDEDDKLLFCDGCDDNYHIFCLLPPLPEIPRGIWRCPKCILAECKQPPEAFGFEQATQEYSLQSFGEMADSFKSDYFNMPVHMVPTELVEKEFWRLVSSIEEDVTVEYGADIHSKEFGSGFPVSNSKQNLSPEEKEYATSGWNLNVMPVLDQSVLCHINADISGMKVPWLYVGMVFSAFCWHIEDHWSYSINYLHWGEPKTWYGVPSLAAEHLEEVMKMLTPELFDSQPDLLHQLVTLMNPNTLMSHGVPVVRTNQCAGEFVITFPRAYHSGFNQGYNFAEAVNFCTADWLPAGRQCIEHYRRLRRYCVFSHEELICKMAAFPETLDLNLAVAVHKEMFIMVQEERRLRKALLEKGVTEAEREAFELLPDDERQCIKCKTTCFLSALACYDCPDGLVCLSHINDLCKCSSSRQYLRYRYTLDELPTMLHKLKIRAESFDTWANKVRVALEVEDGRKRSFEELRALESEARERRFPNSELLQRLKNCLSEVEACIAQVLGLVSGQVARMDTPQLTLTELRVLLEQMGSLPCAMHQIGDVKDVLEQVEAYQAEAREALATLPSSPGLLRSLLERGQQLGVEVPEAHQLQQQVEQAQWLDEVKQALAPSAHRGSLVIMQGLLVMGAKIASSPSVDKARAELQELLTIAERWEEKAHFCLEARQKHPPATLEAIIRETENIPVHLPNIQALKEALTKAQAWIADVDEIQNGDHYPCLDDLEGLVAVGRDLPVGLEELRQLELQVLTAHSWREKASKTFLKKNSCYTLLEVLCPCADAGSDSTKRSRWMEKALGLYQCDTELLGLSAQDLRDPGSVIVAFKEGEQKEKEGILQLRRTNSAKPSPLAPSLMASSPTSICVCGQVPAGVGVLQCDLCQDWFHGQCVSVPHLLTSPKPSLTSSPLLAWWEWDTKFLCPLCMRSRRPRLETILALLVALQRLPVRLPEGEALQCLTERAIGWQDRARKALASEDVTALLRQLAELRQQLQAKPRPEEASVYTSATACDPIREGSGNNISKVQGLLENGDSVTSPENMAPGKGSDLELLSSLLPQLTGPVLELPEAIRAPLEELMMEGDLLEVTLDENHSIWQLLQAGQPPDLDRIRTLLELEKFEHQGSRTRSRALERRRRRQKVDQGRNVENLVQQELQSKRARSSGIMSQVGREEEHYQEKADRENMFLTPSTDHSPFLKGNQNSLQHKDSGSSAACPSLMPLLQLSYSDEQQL", "assay": "KDM5D inhibition, enzyme immunoprecipitated from cells", "format": "biochemical", "source_text": "(§1) In mammalian cells, the KDM5 family consists of four members, namely, KDM5A (known as JARID1A), KDM5B (known as JARID1B or PLU1), KDM5C (JARID1C), and KDM5D (JARID1D or SMCY). […] Next, the inventors tested four KDM chemical inhibitors. […] The inventors detected the induction of OCT4, SOX2, and E-Cadherin expression in JIB-04-treated HFs (FIG. 18D).\n(§2) Epiquik histone demethylase (H3K4 specific) activity/inhibition assay kit (Epigentek, Biocat, Germany) was used to measure the protective effect of O4I3 and zolpidem on the methylation of H3K4. Their inhibitory effects on LSD1, KDM5s, and KDM4 were determined using Epigenase jarid demethylase activity/inhibition assay kit, Epigenase JMJD2 demethylase activity/inhibition assay kit and EpiQuik histone demethylase LSD1 activity/inhibition assay kit (Epigentek, Biocat, Germany). The total nuclear extraction was used according to manufacturer's instructions. For measuring KDM5A, KDM5B, KDM5C, and KDM5D activity, magnetic beads were used to immunoprecipitate the respective enzymes from 10^8 cells according to the manufacturer's instructions (Cell Signaling Technologies)."}, "[2]": {"target": "T2, LSD1 (Homo sapiens, UniProt O60341)", "T2 construct": "using the whole-cell nuclear extraction; endogenous in cells", "assay": "LSD1 demethylase inhibition, nuclear extraction", "format": "biochemical", "settings": "even at a concentration of 100 mM", "source_text": "(§3) HMT and HDM are two major classes of enzymes, contributing to the regulation of histone methylation. Lysine-specific demethylase 1 (LSD1) and histone lysine demethylase 5 (KDM5, also known as JARID1) majorly catalyze demethylation of H3K4. A few KDM5 chemical inhibitors have been reported to inhibit demethylation of H3K4, leading to an increase of global methylated H3K4 in various cell types. The inventors tested the inhibitory effect of O4I3 on LSD1 and KDM5. KDM4 (also known as JMJD2), the HDM of H3K9 and H3K36, was also included.\nas §2"}, "[3]": {"tested_on": "hiPSCs", "assay": "iPSC single cell expansion, viability by MTT assay", "format": "cell-based, human", "settings": "versus absence of O4I3", "description": "(§4) Since O4I3 induced sustainable expression of Oct4 and Nanog, the inventors questioned if it supports iPSC self-renewal in single cell expansion. Therefore, the viability of iPSCs, after replating Accutase®-dissociated single iPSCs, was tested in the presence or absence of O4I3. Rocki (Y-27632) was used for the first 24 h to increase iPSCs survival. A nearly 300% higher viability in cells treated with O4I3 (1 nM) was observed. Using 50 nM of O4I3 even 400% increase was observed (FIG. 2A). FACS analysis confirmed homologous expression of iPSCs markers, Tra-1-81 and Oct4, for at least 30 passages (FIG. 2B).\niPSC single cell expansion was performed according to a well-established protocol known in the art (Watanabe et al, Nat Biotechnol, 2007, 25(6), 681-6). Briefly, iPSCs were dissociated with Accutase® as single cell suspension and re-seeded in a Geltrex-coated 96-well plate in the presence of Rock inhibitor for the first 24 h in combination with/without O4I3. Cell viability was performed in MTT assay as disclosed elsewhere (Cheng et al, Mol Oncol. 2016 June; 10(6):806-24)."}, "[4]": {"target": "T3, KDM5B (Homo sapiens, UniProt Q9UGL1)", "T3 construct": "magnetic beads were used to immunoprecipitate the respective enzymes from 10^8 cells; endogenous in cells", "T3 sequence (Q9UGL1 whole entry)": "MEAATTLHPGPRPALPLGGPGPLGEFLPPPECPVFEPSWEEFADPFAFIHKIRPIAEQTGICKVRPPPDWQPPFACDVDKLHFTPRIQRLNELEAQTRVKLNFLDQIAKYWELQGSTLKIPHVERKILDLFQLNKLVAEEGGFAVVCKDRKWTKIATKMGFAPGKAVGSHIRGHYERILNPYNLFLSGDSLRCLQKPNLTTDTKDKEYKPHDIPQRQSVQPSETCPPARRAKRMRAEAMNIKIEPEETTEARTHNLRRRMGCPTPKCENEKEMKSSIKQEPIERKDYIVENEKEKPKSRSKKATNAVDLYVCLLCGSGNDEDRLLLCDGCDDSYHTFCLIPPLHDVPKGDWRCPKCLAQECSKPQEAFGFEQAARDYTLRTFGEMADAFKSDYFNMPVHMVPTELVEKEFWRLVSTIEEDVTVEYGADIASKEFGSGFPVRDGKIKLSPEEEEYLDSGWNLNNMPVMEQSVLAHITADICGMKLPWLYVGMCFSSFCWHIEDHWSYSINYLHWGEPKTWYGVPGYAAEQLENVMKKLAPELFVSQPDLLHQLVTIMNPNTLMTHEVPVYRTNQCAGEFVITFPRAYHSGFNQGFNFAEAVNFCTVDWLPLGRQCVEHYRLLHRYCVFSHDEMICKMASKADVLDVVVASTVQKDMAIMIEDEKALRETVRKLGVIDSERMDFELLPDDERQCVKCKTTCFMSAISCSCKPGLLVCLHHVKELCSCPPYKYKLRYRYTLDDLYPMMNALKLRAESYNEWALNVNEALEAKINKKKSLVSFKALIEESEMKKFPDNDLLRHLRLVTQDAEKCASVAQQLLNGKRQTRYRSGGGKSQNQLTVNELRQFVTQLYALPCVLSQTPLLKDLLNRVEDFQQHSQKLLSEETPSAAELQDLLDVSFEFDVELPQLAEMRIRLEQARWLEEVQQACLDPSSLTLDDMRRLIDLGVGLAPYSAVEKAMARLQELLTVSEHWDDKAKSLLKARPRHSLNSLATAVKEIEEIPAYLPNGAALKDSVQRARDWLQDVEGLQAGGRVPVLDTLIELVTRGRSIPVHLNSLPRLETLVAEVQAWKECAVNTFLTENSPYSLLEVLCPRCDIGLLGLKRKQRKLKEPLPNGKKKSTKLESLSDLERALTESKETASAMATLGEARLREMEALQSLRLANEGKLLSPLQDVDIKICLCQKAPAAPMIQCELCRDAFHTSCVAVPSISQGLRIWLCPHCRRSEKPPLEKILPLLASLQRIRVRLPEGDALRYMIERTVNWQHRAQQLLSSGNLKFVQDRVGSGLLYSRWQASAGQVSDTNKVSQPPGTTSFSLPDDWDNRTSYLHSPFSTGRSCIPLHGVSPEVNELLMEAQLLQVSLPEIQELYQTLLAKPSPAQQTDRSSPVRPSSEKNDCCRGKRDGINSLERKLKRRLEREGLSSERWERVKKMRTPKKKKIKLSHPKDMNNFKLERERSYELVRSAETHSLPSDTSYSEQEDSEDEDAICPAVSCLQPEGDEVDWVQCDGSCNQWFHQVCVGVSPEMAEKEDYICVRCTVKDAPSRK", "assay": "KDM5B inhibition, enzyme immunoprecipitated from cells", "format": "biochemical", "source_text": "as §1, §2"}, "[5]": {"tested_on": "hiPSCs", "assay": "Maintenance of hiPSCs, FACS of Tra-1-81 and Oct4 over passages", "format": "cell-based, human", "settings": "50 nM O4I3, FACS", "description": "as §4\niPSCs were seeded in a 6-well plate coated with Geltrex. Cells were harvested, fixed and permeabilized (if appropriately) as known in the art (Cheng et al, Mol Oncol. 2016 June; 10(6):806-24). Fixed cells were incubated with the primary antibody for 24 h at 4° C. and with the secondary antibody for 1 h at room temperature."}, "[6]": {"target": "T4, KDM5C (Homo sapiens, UniProt P41229)", "T4 construct": "magnetic beads were used to immunoprecipitate the respective enzymes from 10^8 cells; endogenous in cells", "T4 sequence (P41229 whole entry)": "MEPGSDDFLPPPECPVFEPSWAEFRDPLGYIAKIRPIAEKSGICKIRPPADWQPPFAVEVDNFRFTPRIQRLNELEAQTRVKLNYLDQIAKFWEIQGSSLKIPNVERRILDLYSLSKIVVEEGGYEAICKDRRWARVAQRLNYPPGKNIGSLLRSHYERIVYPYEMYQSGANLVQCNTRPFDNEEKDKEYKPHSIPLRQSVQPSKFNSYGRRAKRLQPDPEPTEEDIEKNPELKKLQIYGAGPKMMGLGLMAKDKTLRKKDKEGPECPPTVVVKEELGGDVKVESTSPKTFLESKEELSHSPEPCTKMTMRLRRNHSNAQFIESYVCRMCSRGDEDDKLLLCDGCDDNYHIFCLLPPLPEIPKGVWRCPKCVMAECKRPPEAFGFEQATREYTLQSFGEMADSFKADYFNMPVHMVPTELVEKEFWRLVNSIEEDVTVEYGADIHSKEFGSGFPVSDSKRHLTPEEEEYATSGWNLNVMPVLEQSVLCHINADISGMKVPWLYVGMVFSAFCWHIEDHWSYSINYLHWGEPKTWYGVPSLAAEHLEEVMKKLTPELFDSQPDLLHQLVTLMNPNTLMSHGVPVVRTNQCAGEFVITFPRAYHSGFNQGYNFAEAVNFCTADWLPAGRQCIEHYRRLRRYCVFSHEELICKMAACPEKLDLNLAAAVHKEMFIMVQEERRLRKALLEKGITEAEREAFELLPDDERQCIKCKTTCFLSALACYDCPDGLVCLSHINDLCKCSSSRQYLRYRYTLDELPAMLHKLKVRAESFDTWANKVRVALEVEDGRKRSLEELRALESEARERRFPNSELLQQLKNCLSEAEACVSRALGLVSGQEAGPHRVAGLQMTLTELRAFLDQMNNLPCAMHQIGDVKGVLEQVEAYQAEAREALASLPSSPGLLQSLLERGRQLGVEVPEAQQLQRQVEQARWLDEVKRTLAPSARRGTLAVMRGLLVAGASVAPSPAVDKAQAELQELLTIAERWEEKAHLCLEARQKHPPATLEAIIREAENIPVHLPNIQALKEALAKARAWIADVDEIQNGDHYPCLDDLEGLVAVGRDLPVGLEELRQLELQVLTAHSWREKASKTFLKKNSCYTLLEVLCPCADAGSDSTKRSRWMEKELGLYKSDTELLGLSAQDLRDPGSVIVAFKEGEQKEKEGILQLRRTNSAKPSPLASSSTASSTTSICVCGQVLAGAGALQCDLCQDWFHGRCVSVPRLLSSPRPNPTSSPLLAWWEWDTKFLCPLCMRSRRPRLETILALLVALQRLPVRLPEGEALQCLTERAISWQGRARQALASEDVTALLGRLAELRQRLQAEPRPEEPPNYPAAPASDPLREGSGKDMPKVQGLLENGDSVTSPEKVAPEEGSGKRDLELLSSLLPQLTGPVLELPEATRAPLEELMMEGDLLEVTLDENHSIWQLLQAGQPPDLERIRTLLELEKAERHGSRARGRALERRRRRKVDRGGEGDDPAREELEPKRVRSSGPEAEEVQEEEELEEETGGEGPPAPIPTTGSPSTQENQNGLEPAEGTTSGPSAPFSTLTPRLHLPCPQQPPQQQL", "assay": "KDM5C inhibition, enzyme immunoprecipitated from cells", "format": "biochemical", "source_text": "as §1, §2"}, "[7]": {"tested_on": "human fibroblasts", "assay": "Episome-based reprogramming of human fibroblasts, AP+ / iPSC-like colonies", "format": "cell-based", "description": "O4I3 was applied in commercially available episome-based reprogramming cocktail containing episomal vectors for overexpression of Oct4, Sox2, Klf4, Lin28 and L-Myc, as well as suppression of p53. In comparison to non-treated fibroblast cultures, 20 times more alkaline phosphatase (AP) positive colonies were detected in the presence of O4I3 at a concentration of 50 nM in two tested human primary fibroblasts (HF1 and HF2) (FIG. 13).\nIt is known in the art that senescence or other unknown factors can confer donor fibroblasts resistance to reprogramming. Therefore, O4I3 was tested for its ability to enable reprogramming of refractory fibroblasts. Two human fibroblasts were selected. HFF-LTR7-EGFP at passage >40 carrying EGFP driven by a LTR7 promoter, which was activated during reprogramming, and HF5, isolated from a patient sample, both of which were resistant to an episome-based reprogramming approach (FIG. 13).\nEpi5® Episomal iPSC Reprogramming Kit (Life technologies) was used to reprogram human fibroblasts according to the manufacturer's protocol. Briefly, 5,000-50,000 cells were seeded in a 24-well plate for 24 h and then transfected with episomal vectors in N2 B27 medium. After 14 days, cells were re-suspended with 0.5 mM EDTA and re-plated in a 6-well plate in Essential®8 medium. Colonies were isolated after 3-4 weeks with the help of alkaline phosphatase (AP) live stain (Life technologies). Medium was refreshed daily."}, "[8]": {"tested_on": "KDM5", "assay": "KDM5 demethylase inhibition, whole-cell nuclear extraction", "format": "biochemical", "settings": "whole-cell nuclear extraction", "source_text": "as §3, §2"}}, "data": [{"compound": "Cc1ccc(-c2cn3cc(C)ccc3n2)cc1", "note": "[O4I3, 6-methyl-2-(p-tolyl)imidazo[1,2-a]pyridine]", "values": [{"measurement": "IC50 less potent than for KDM5A, KDM5D", "setting": "[1]", "result": 20, "unit": "fold"}, {"measurement": "inhibitory effect on LSD1", "setting": "[2]", "result": "hardly detected the inhibitory effect"}, {"measurement": "higher viability of iPSCs in single cell expansion", "setting": "[3]; 1 nM", "result": "~300", "unit": "%"}, {"measurement": "higher viability of iPSCs in single cell expansion", "setting": "[3]; 50 nM", "result": 400, "unit": "%"}, {"measurement": "IC50 less potent than for KDM5A, KDM5B", "setting": "[4]", "result": "1,000 fold"}, {"measurement": "homologous expression of Tra-1-81 and Oct4, number of passages", "setting": "[5]", "result": "at least 30 passages"}, {"measurement": "IC50 less potent than for KDM5A, KDM5C", "setting": "[6]", "result": 40, "unit": "fold"}, {"measurement": "alkaline phosphatase (AP) positive colonies in comparison to non-treated fibroblast cultures", "setting": "[7]; 50 nM, HF1 and HF2", "result": 20, "unit": "times"}, {"measurement": "reprogramming of resistant fibroblasts", "setting": "[7]; 500 Nm, HFF-LTR7-EGFP and HF5", "result": "appearance of iPSC-like colonies"}, {"measurement": "IC50", "setting": "[8]", "result": 0.79, "unit": "nM"}]}]}
